For data set [1], the target named is T1, Fluc (Photinus pyralis, UniProt P08659). Particulars: with Fluc; cited from earlier work.
Data set [2] addresses T1, Fluc. Description: BL emission spectra of luciferase-luciferin reactions. Type of data set: biochemical. The note with it: 100 mM HEPES pH 8.0, 25 °C. Here is the method:
(§1) 1.5 Bioluminescence characterizations
(§2) Reactions of luciferases, including Photinus pyralis luciferase (Fluc), Phrixothrix hirtus luciferase (SLR), Pyrearinus termitilluminans […]
(§3) mM D-LH 2 analogues, 3 mM ATP, 6 mM MgCl2, and 10 µM luciferase in 0.2 ml of 100 mM HEPES-NaOH pH 8.0. The bioluminescence (BL) emission characteristics were recorded using a microplate reader in a BL mode (Thermo Scientific, Varioskan, LUX multimode). […]
(§4) sphere-based multichannel spectrometer with a charge-coupled device (CCD) detector. […]

The target of data set [3] is T1, Fluc. The data set can be described thus: Stopped-flow luminometry, single turnover light formation and decay. The note with it: Fluc single turnover, 25 °C. Type of data set: biochemical. The method, then: 1.5 Bioluminescence characterizations […]
One syringe was filled with a solution of 50 µM Fluc, 3 mM ATP, and 6 mM
in both syringes were mixed by a stopped-flow device and measured the light emission at 25 °C in triplicate. […]
2.8 Investigation of bioluminescence kinetics using stopped-flow luminometry
reactions were investigated using a stopped-flow spectrophotometer (employing a light-off mode for detecting the luminescence). One

Data set [4] relates to SLR. The data set can be described thus: Steady-state kinetics of luciferase reactions (luminometer). Type of data set: biochemical, Phrixothrix hirtus. The note with it: for appKm: pH 8.0, 25 °C; for Relative kcat: relative to 2a compound. The method, then:
as §1, §2, §3
BL of the
(§5) The reactions were initiated by mixing 25 µl of premixed solution of luciferases/D-LH 2 analogues with 125 µl of 3 mM ATP and 6 mM MgCl2 in 100 mM HEPES-NaOH (pH 8.0). The light intensity (relative light unit, RLU) during 0-300 sec was then collected to represent the overall luciferase activity which was further used for calculating kinetic parameters from the Michaelis-Menten equation. […]

A short description of data set [5]: Absorption and fluorescence spectra of luciferins. Type of data set: physicochemical. The note with it: 100 mM HEPES pH 8.0, 25 °C. Here is the method: 2.6 Spectra of firefly luciferins
spectrophotometer (Agilent technologies, Cary 100 UV Vis, Cary Series UV-Vis Spectrophotometer).
were recorded by a microplate reader (Thermo Scientific, Varioskan, LUX multimode) in fluorescence mode. The reactions of D-LH 2 […]
Supplementary Table S5. […]
[e] ND denotes “not detectable”. […]

Data set [6] relates to Pmluc-WT. The data set can be described thus: Steady-state kinetics of luciferase reactions (luminometer). Type of data set: biochemical, Pyrocoelia miyako. The note with it: for appKm: pH 8.0, 25 °C; for Relative kcat: relative to 2a compound. Here is the method: as §1, §2, §3
BL of the
as §5

Data set [7] addresses T1, Fluc. Description: biochemical. The format is binding. The note with it: ITC.
In data set [8] the test system is SLR. Description: BL emission spectra of luciferase-luciferin reactions. Type of data set: biochemical, Phrixothrix hirtus. Particulars: 100 mM HEPES pH 8.0, 25 °C. Here is the method:
as §1, §2, §3, §4

Data set [9] relates to Eluc. The description is as above. Particulars: 100 mM HEPES pH 8.0, 25 °C. Type of data set: biochemical, Pyrearinus termitilluminans. The method, then: as §1, §2, §3, §4
Data set [10] has as its system Pmluc-WT. The description is as above. The format is biochemical, Pyrocoelia miyako. Particulars: 100 mM HEPES pH 8.0, 25 °C. The method, then:
as §1, §2, §3, §4

Data set [11] has as its system Pmluc-N230S. The data set is described as above. Type of data set: biochemical, Pyrocoelia miyako. Particulars: 100 mM HEPES pH 8.0, 25 °C.
Experimental: mM D-LH 2 analogues, 3 mM ATP, 6 mM MgCl2, and 10 µM luciferase in 0.2 ml of 100 mM HEPES-NaOH pH 8.0. The bioluminescence (BL) emission characteristics were recorded using a microplate reader in a BL mode (Thermo Scientific, Varioskan, LUX multimode). A digital single-lens reflex (DSLR) camera (Nikon D80, CCD sensor) with a 30-second exposure period was used to capture the BL images.
were selected to investigate their BL emission spectra with luciferases including Fluc, SLR, Pmluc-WT, Pmluc-N230S using an integrating sphere-based multichannel spectrometer with a charge-coupled device (CCD) detector.
In data set [12] the test system is Eluc. The data set can be described thus: Steady-state kinetics of luciferase reactions (luminometer). Type of data set: biochemical, Pyrearinus termitilluminans. Particulars: for appKm: pH 8.0, 25 °C; for Relative kcat: relative to 2a compound. The method, then:
as §1, §2, §3
BL of the
as §5

Data set [13] has as its target T1, Fluc. Described as above. Type of data set: biochemical. Particulars: for appKm: pH 8.0, 25 °C; for Relative kcat: relative to 2a compound. The method, then: as §1, §2, §3
BL of the
as §5

Data set [14] relates to Pmluc-N230S. The description is as above. Particulars: Pmluc-N230S; for appKm: pH 8.0, 25 °C; for Relative kcat: relative to 2a compound. The format is biochemical, Pyrocoelia miyako. Here is the method:
as §1, §2, §3
BL of the
as §5

For data set [15], the target named is Fluc-ApCPP complex (Photinus pyralis, UniProt P08659). Description: biochemical. The note with it: ITC. The format is binding.
The subject of data set [16] is luciferases. The note with it: cited from earlier work.
Setting [17] is: concentration range tested 0-300.

Values joined by “and” are separate entries in the source; they are usually repeats but may differ in a detail not shown here. Equal values may be shown once. Some results are limits rather than exact numbers.

Sequence of Fluc-ApCPP complex (P08659 whole entry, one chain of several): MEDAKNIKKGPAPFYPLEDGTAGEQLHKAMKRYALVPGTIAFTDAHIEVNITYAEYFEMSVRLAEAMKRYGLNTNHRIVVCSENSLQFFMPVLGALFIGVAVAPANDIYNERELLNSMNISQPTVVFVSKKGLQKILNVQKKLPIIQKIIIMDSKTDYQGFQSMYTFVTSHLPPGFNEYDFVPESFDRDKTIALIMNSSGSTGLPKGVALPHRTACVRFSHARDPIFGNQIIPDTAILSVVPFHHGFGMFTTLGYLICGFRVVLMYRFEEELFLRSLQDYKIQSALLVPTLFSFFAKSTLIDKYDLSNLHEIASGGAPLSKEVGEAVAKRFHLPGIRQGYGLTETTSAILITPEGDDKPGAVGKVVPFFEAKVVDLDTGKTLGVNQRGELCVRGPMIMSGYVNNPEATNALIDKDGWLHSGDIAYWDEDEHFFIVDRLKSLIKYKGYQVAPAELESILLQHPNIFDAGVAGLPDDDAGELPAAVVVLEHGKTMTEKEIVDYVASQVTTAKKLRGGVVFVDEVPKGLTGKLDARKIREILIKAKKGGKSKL
T1 sequence (P08659 whole entry): as the sequence (P08659 whole entry, one chain of several) above

For the molecule `CN(C)c1ccc(/C=C/C=C/C2=N[C@@H](C(=O)O)CS2)cc1.Cl` [AkaLumine–HCl], the Quantum yield in data set [1] was 4.0 ± 0.5%.
A word on the Kd: it is the concentration at which binding is half-saturated. On to `COc1cc2nc(C3=N[C@@H](C(=O)O)CS3)sc2c(OC)c1O` [Compound 2d, 5′,7′-dimethoxy-D-luciferin], for which the “Bioluminescence wavelength (BLλ)” value in data set [2] is 625 nm; in data set [8] it was more than 630 nm; in data set [8] (listed as 5′,7′-dimethoxy-D-LH2) it was 663 nm; in [9] it was 596 nm; in data set [10] it was 582 nm; in [11], 646 nm. Besides, in data set [3], the “Observed rate constant (kobs) Light decay Faster phase” value was determined as 0.50 ± 0.00 s⁻¹. In addition, the “Observed rate constant (kobs) Light formation” value in [3] worked out at 8.13 ± 0.08 s⁻¹. In addition, the Substrate inhibition in data set [4] (setting [17]) was more than 16.6 µM; in [6] (setting [17]) it was more than 0.8 µM; in data set [13] (setting [17]), more than 0.8 µM. Further, the appKm in [4] stood at 5.0 µM; in [6] it was 0.2 µM; in data set [12] it was 34.7 µM; in data set [13] it was 0.2 µM; in data set [14], 13.3 µM. The Relative kcat in data set [4] is 0.8; in data set [6], ~ 0.02; in [12] it was 0.1; in data set [13] it was 1.3; in [14] it was 0.2. The “Absorption (λmax)” value in data set [5] was determined as 412 nm. In data set [7], this molecule had a N site of 0.42. For the same molecule, in [7] (25 °C), the “G (free energy of binding)” value is recorded as -6.18 kcal/mol. For the same molecule, the “H (enthalpy of binding)” value in data set [7] (25 °C) is -5.24 kcal/mol. Besides, the Kd in [7] (Table S9) stood at 30.4 µM.
Consider `Cc1cc(O)c(C)c2sc(C3=N[C@@H](C(=O)O)CS3)nc12` [Compound 2e, 4′,7′-dimethyl-D-LH2], for which the “Bioluminescence wavelength (BLλ)” value was determined as 636 nm in data set [2]; 644 nm in [8]; 583 nm in data set [9]; 637 nm in data set [10]; 631 nm in [11]. Also, the appKm worked out at 9.0 µM in data set [4]; 10.2 µM in data set [6]; 19.1 µM in data set [12]; 7.1 µM in data set [13]; 6.6 µM in data set [14]. The Relative kcat in data set [4] came to 5.5; in data set [6], 1.2; in [12], 0.2; in data set [13] it was 1.0; in data set [14], 6.3. Moreover, the “Absorption (λmax)” value in data set [5] is recorded as 330 nm. In addition, the “Fluorescence (λem)” value in [5] was 560 nm and 523–560 nm. Further, in [15] (25 °C, preformed Fluc-ApCPP complex, read-out: Dissociation constant (Kd) Fluc-ApCPP: Luciferin), the Kd was 864 ± 7 µM. The molecule further came in with a N site in data set [15] (Fluc-ApCCP) of 0.90. In data set [15] (Fluc-ApCCP, 25 °C), the “G (free energy of binding)” value is listed as -4.41 kcal/mol. Besides, the “H (enthalpy of binding)” value in data set [15] (Fluc-ApCCP, 25 °C) is recorded as -80.0 kcal/mol.
For the molecule `Cc1c(O)c2ccccc2c2nc(C3=N[C@@H](C(=O)O)CS3)sc12` [Compound 2f, 7′-methylnaphthol-D-luciferin], the “Bioluminescence wavelength (BLλ)” value was 648 nm and > 630 nm in [2]; 634 nm in data set [8]; 557 nm in data set [9]. The appKm in data set [4] stood at 11.6 µM; in data set [12] it was 24.7 µM; in data set [13], 2.7 µM. The Relative kcat in data set [4] is on record as 1.1; in [12] it was 0.0; in data set [13] it was 0.1; in data set [14] it was ~ 0.01. Besides, the “Absorption (λmax)” value in data set [5] is on record as 437 nm. In data set [5], the “Fluorescence (λem)” value was found to be 580 nm.
Take infraluciferin: the “Longest BL wavelength” value in [16] is more than 700 nm.
